Reference: publication PMC10974507, “Design, Synthesis, Biological Evaluation and Molecular Docking of Novel F-18-Labeled Focal Adhesion Kinase Inhibitors as Potential Tumor Radiotracers” (Molecules, 2024)
One block for each compound: values may come before it.

Key:
[1] = Octanol/water partition coefficient determination; format: physicochemical; conditions: pH 7.4, read-out: logD7.4
Protocol: The partition coefficients of the radiotracers [^18F]7a and [^18F]7c were determined to evaluate the octanol/water partition properties.
(§1) The FAK kinase inhibition test and the partition coefficient test were conducted according to a previously reported method.

[2] = system: mice bearing S-180 tumors; assay: Biodistribution in S-180 tumor-bearing mice; format: in vivo, Kunming mice; conditions: for Biodistribution, Blood / Biodistribution, Bone / Biodistribution, Brine / Biodistribution, Heart / Biodistribution, Kidney / Biodistribution, Large intestine / Biodistribution, Liver / Biodistribution, Lung / Biodistribution, Muscle / Biodistribution, Small intestine / Biodistribution, Spleen / Biodistribution, Stomach / Biodistribution, Tumor (tumor uptake): mean ± SD, n = 3; for Biodistribution, Tumor (tumor uptake): S-180 tumor
Protocol: Kunming mice (female, 18−22 g) and S180 ascites mice were purchased from Beijing Xinglong Animal Technology Co., Ltd., Beijing, China and Beijing Vital River Animal Technology Co., Ltd., Beijing, China, respectively. All the mice-concerned experiments were conducted in strict accordance with the “Guidelines for Humane Treatment of Laboratory Animals”, and the whole process was approved by the Animal Protection Committee of Beijing Normal University (Approval Code: BNUCC-EAW-2023-16; Approval date: 14 June 2023). The specific experimental operations were in accordance with those methods described previously.

[3] = target: FAK (Homo sapiens, UniProt Q05397); assay: FAK inhibitory assay (homogeneous time-resolved fluorescence kinase assay); format: biochemical; conditions: in vitro enzyme activity against FAK
FAK, sequence (Q05397 whole entry, species assumed): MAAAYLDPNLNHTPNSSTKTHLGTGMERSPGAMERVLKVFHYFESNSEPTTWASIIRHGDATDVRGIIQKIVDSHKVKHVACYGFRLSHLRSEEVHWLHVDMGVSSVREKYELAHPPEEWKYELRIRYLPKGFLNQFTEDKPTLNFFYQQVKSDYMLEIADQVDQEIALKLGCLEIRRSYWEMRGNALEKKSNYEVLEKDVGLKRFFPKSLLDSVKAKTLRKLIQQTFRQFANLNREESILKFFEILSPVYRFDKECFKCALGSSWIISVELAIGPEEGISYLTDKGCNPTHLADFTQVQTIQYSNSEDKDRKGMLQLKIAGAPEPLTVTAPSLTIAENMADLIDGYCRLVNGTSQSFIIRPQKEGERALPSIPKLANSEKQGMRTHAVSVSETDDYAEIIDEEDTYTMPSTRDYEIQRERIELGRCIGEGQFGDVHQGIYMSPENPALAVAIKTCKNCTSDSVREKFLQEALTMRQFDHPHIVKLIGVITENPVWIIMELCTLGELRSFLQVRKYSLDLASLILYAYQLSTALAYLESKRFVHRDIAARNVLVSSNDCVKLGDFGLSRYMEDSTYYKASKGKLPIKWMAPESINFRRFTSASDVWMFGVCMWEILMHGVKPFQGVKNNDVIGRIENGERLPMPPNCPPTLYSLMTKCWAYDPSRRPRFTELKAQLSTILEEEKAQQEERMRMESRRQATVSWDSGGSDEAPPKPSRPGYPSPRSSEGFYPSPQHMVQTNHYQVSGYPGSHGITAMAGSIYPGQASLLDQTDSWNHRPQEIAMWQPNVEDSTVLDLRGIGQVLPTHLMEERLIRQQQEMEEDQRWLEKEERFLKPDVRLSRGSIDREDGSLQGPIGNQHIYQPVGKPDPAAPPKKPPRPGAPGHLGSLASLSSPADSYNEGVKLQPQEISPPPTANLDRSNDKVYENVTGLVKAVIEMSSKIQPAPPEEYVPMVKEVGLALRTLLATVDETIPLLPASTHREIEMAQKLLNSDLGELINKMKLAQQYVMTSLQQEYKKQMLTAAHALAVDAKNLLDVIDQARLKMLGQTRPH
Protocol: The inhibitory activities of the 7a–7c against FAK were tested using a homogeneous time-resolved fluorescence methodology-based kinase assay.
as §1

[4] = 30 min after intravenous injection
[5] = 60 min after intravenous injection
[6] = 120 min after intravenous injection

Compound: CNC(=O)c1cc(N2CCS(=O)(=O)CC2)ccc1Nc1nc(Nc2ccc(OCCOCCOCC[18F])cc2)ncc1Br [[^18F]7a]
logD [1]: 0.96 | Tumor/blood ratio [2, 4]: 1.34 | Tumor/muscle ratio [2, 4]: 0.80 | Biodistribution, Blood [2, 4]: 0.98 ± 0.26 % ID/g | Biodistribution, Bone [2, 4]: 2.32 ± 0.45 % ID/g | Biodistribution, Brine [2, 4]: 0.57 ± 0.08 % ID/g | Biodistribution, Heart [2, 4]: 3.05 ± 0.29 % ID/g | Biodistribution, Kidney [2, 4]: 3.02 ± 1.70 % ID/g | Biodistribution, Large intestine [2, 4]: 1.46 ± 0.13 % ID/g | Biodistribution, Liver [2, 4]: 23.49 ± 4.29 % ID/g | Biodistribution, Lung [2, 4]: 33.55 ± 5.59 % ID/g | Biodistribution, Muscle [2, 4]: 1.63 ± 0.34 % ID/g | Biodistribution, Small intestine [2, 4]: 2.95 ± 0.17 % ID/g | Biodistribution, Spleen [2, 4]: 5.43 ± 1.12 % ID/g | Biodistribution, Stomach [2, 4]: 0.92 ± 0.28 % ID/g | Tumor/blood ratio [2, 5]: 1.45 | Tumor/muscle ratio [2, 5]: 0.56 | Biodistribution, Blood [2, 5]: 0.96 ± 0.10 % ID/g | Biodistribution, Bone [2, 5]: 2.96 ± 0.43 % ID/g | Biodistribution, Brine [2, 5]: 1.08 ± 0.13 % ID/g | Biodistribution, Heart [2, 5]: 1.12 ± 0.03 % ID/g | Biodistribution, Kidney [2, 5]: 1.47 ± 0.18 % ID/g | Biodistribution, Large intestine [2, 5]: 1.36 ± 0.36 % ID/g | Biodistribution, Liver [2, 5]: 23.16 ± 2.65 % ID/g | Biodistribution, Lung [2, 5]: 28.77 ± 5.72 % ID/g | Biodistribution, Muscle [2, 5]: 2.50 ± 0.59 % ID/g | Biodistribution, Small intestine [2, 5]: 1.58 ± 0.35 % ID/g | Biodistribution, Spleen [2, 5]: 2.53 ± 0.21 % ID/g | Biodistribution, Stomach [2, 5]: 0.80 ± 0.21 % ID/g | Tumor/blood ratio [2, 6]: 0.89 | Tumor/muscle ratio [2, 6]: 4.30 | Biodistribution, Blood [2, 6]: 0.92 ± 0.15 % ID/g | Biodistribution, Bone [2, 6]: 1.27 ± 0.42 % ID/g | Biodistribution, Brine [2, 6]: 0.16 ± 0.01 % ID/g | Biodistribution, Heart [2, 6]: 0.85 ± 0.09 % ID/g | Biodistribution, Kidney [2, 6]: 1.16 ± 0.06 % ID/g | Biodistribution, Large intestine [2, 6]: 4.5 ± 1.91 % ID/g | Biodistribution, Liver [2, 6]: 8.86 ± 3.14 % ID/g | Biodistribution, Lung [2, 6]: 11.63 ± 1.25 % ID/g | Biodistribution, Muscle [2, 6]: 0.20 ± 0.03 % ID/g | Biodistribution, Small intestine [2, 6]: 0.96 ± 0.29 % ID/g | Biodistribution, Spleen [2, 6]: 5.58 ± 1.06 % ID/g | Biodistribution, Stomach [2, 6]: 1.16 ± 0.40 % ID/g | Biodistribution, Tumor (tumor uptake) [2, 4]: 1.31 ± 0.07 % ID/g | Biodistribution, Tumor (tumor uptake) [2, 5]: 1.39 ± 0.30 % ID/g | Biodistribution, Tumor (tumor uptake) [2, 6]: 0.86 ± 0.34 % ID/g

Compound: CNC(=O)c1cc(N2CCN(C(C)=O)CC2)ccc1Nc1nc(Nc2ccc(OCCOCCOCCF)c(-c3cnn(C)c3)c2)ncc1Br [Compound 7e, 5-(4-acetylpiperazin-1-yl)-2-((5-bromo-2-((4-(2-(2-(2-fluoroethoxy)ethoxy)ethoxy)-3-(1-methyl-1H-pyrazol-4-yl)phenyl)amino)pyrimidin-4-yl)amino)-N-methylbenzamide]
IC50 [3]: 643 nM

Compound: CCN1CCN(c2ccc(Nc3nc(Nc4ccc(OCCOCCOCCF)c(-c5cnn(C)c5)c4)ncc3Br)c(C(=O)NC)c2)CC1 [Compound 7g, 2-((5-bromo-2-((4-(2-(2-(2-fluoroethoxy)ethoxy)ethoxy)-3-(1-methyl-1H-pyrazol-4-yl)phenyl)amino)pyrimidin-4-yl)amino)-5-(4-ethylpiperazin-1-yl)-N-methylbenzamide]
IC50 [3]: 1240 nM

Compound: CNC(=O)c1cc(N2CCN(C(C)=O)CC2)ccc1Nc1nc(Nc2ccc(OCCOCCOCCF)c(C(=O)N3CCOCC3)c2)ncc1Br [Compound 7d, 5-(4-acetylpiperazin-1-yl)-2-((5-bromo-2-((4-(2-(2-(2-fluoroethoxy)ethoxy)ethoxy)-3-(morpholine-4-carbonyl)phenyl)amino)pyrimidin-4-yl)amino)-N-methylbenzamide]
IC50 [3]: 1970 nM

Compound: CNC(=O)c1cc(N2CCS(=O)(=O)CC2)ccc1Nc1nc(Nc2ccc(OCCOCCOCC[18F])c(-c3cnn(C)c3)c2)ncc1Br [[^18F]7c]
logD [1]: 0.74 | Tumor/blood ratio [2, 4]: 2.40 | Tumor/muscle ratio [2, 4]: 1.88 | Biodistribution, Blood [2, 4]: 2.74 ± 0.11 % ID/g | Biodistribution, Bone [2, 4]: 4.12 ± 0.39 % ID/g | Biodistribution, Brine [2, 4]: 2.81 ± 0.06 % ID/g | Biodistribution, Heart [2, 4]: 3.46 ± 0.65 % ID/g | Biodistribution, Kidney [2, 4]: 4.00 ± 0.25 % ID/g | Biodistribution, Large intestine [2, 4]: 6.18 ± 0.60 % ID/g | Biodistribution, Liver [2, 4]: 17.64 ± 4.45 % ID/g | Biodistribution, Lung [2, 4]: 120.47 ± 15.08 % ID/g | Biodistribution, Muscle [2, 4]: 3.50 ± 0.18 % ID/g | Biodistribution, Small intestine [2, 4]: 13.02 ± 1.93 % ID/g | Biodistribution, Spleen [2, 4]: 16.32 ± 1.26 % ID/g | Biodistribution, Stomach [2, 4]: 5.81 ± 1.02 % ID/g | Tumor/blood ratio [2, 5]: 1.71 | Tumor/muscle ratio [2, 5]: 2.09 | Biodistribution, Blood [2, 5]: 3.43 ± 0.04 % ID/g | Biodistribution, Bone [2, 5]: 4.86 ± 0.30 % ID/g | Biodistribution, Brine [2, 5]: 3.12 ± 0.66 % ID/g | Biodistribution, Heart [2, 5]: 2.53 ± 0.56 % ID/g | Biodistribution, Kidney [2, 5]: 3.82 ± 0.44 % ID/g | Biodistribution, Large intestine [2, 5]: 4.47 ± 0.44 % ID/g | Biodistribution, Liver [2, 5]: 19.21 ± 3.81 % ID/g | Biodistribution, Lung [2, 5]: 128.13 ± 6.74 % ID/g | Biodistribution, Muscle [2, 5]: 2.80 ± 0.49 % ID/g | Biodistribution, Small intestine [2, 5]: 5.73 ± 0.82 % ID/g | Biodistribution, Spleen [2, 5]: 8.48 ± 0.10 % ID/g | Biodistribution, Stomach [2, 5]: 1.14 ± 0.16 % ID/g | Tumor/blood ratio [2, 6]: 1.37 | Tumor/muscle ratio [2, 6]: 2.16 | Biodistribution, Blood [2, 6]: 3.79 ± 0.46 % ID/g | Biodistribution, Bone [2, 6]: 10.70 ± 1.01 % ID/g | Biodistribution, Brine [2, 6]: 2.01 ± 0.18 % ID/g | Biodistribution, Heart [2, 6]: 3.12 ± 0.25 % ID/g | Biodistribution, Kidney [2, 6]: 3.50 ± 0.37 % ID/g | Biodistribution, Large intestine [2, 6]: 48.07 ± 9.85 % ID/g | Biodistribution, Liver [2, 6]: 28.36 ± 5.74 % ID/g | Biodistribution, Lung [2, 6]: 125.29 ± 16.25 % ID/g | Biodistribution, Muscle [2, 6]: 2.04 ± 0.12 % ID/g | Biodistribution, Small intestine [2, 6]: 7.49 ± 1.46 % ID/g | Biodistribution, Spleen [2, 6]: 24.70 ± 4.31 % ID/g | Biodistribution, Stomach [2, 6]: 3.32 ± 0.31 % ID/g | Biodistribution, Tumor (tumor uptake) [2, 4]: 6.58 ± 0.46 % ID/g | Biodistribution, Tumor (tumor uptake) [2, 5]: 5.85 ± 0.28 % ID/g | Biodistribution, Tumor (tumor uptake) [2, 6]: 5.18 ± 0.68 % ID/g

Further compounds by falling IC50 [3], results first:

IC50 [3]: 24.6 nM
Compound: CNC(=O)c1cc(N2CCS(=O)(=O)CC2)ccc1Nc1nc(Nc2ccc(OCCOCCOCCF)c(C(=O)N3CCN(C(C)=O)CC3)c2)ncc1Br [Compound 7b, 2-((2-((3-(4-acetylpiperazine-1-carbonyl)-4-(2-(2-(2-fluoroethoxy)ethoxy)ethoxy)phenyl)amino)-5-bromopyrimidin-4-yl)amino)-5-(1,1-dioxidothiomorpholino)-N-methylbenzamide]

IC50 [3]: 10 nM
Compound: CNC(=O)c1cc(N2CCOCC2)ccc1Nc1nc(Nc2ccc(OCCOCCOCCF)c(C(=O)N3CCN(C(C)=O)CC3)c2)ncc1Br [Compound 7f]

IC50 [3]: 5.59 nM
Compound: CNC(=O)c1cc(N2CCS(=O)(=O)CC2)ccc1Nc1nc(Nc2ccc(OCCOCCOCCF)cc2)ncc1Br [Compound 7a, 2-((5-bromo-2-((4-(2-(2-(2-fluoroethoxy)ethoxy)ethoxy)phenyl)amino)pyrimidin-4-yl)amino)-5-(1,1-dioxidothiomorpholino)-N-methylbenzamide]

IC50 [3]: 1.27 nM | Biodistribution, Tumor (tumor uptake) [2, 4]: 6.58 ± 0.46 % ID/g
Compound: CNC(=O)c1cc(N2CCS(=O)(=O)CC2)ccc1Nc1nc(Nc2ccc(OCCOCCOCCF)c(-c3cnn(C)c3)c2)ncc1Br [Compound 7c, 2-((5-bromo-2-((4-(2-(2-(2-fluoroethoxy)ethoxy)ethoxy)-3-(1-methyl-1H-pyrazol-4-yl)phenyl)amino)pyrimidin-4-yl)amino)-5-(1,1-dioxidothiomorpholino)-N-methylbenzamide]
